The supplement of paper PMC10307832

Key:
Experiment in all cases: relative viability (nuclei count vs DMSO), 5 days (fraction); higher = more cells survive
HCC-15 = system: HCC-15
Summary of the method: (§1)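 Lung cancer cell lines were pin-tool dosed in 1536-well plates on the day after seeding, with either a lone drug or a fixed anchor-drug dose plus five library-drug doses (not always all listed) in √10 steps. Nuclei were counted on 4× images after 5 days. Relative viability is the ratio of treated-well to vehicle-well nuclei counts, with each value a median of duplicate plates.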

HCC-366 = system: HCC-366
Summary of the method: as §1

NCI-H2126 = system: NCI-H2126
Summary of the method: as §1

A-427 = system: A-427
Summary of the method: as §1

NCI-H1734 = system: NCI-H1734
Summary of the method: as §1

NCI-H2023 = system: NCI-H2023
Summary of the method: as §1

NCI-H2009 = system: NCI-H2009
Summary of the method: as §1

NCI-H1650 = system: NCI-H1650
Summary of the method: as §1

SW 1573 = system: SW 1573
Summary of the method: as §1

LOU-NH91 = system: LOU-NH91
Summary of the method: as §1

NCI-H441 = system: NCI-H441
Summary of the method: as §1

HCC-44 = system: HCC-44
Summary of the method: as §1

NCI-H650 = system: NCI-H650
Summary of the method: as §1

RERF-LC-KJ = system: RERF-LC-KJ
Summary of the method: as §1

NCI-H460 = system: NCI-H460
Summary of the method: as §1

HARA = system: HARA
Summary of the method: as §1

ChaGo-K-1 = system: ChaGo-K-1
Summary of the method: as §1

HCC-78 = system: HCC-78
Summary of the method: as §1

COR-L23 = system: COR-L23
Summary of the method: as §1

LCLC-97TM1 = system: LCLC-97TM1
Summary of the method: as §1

LCLC-103H = system: LCLC-103H
Summary of the method: as §1

NCI-H1993 = system: NCI-H1993
Summary of the method: as §1

201T = system: 201T
Summary of the method: as §1

Cc1cnc(-c2cnc(NCCNc3ccc(C#N)cn3)nc2-c2ccc(Cl)cc2Cl)[nH]1 + C[C@@H](Oc1cc(-c2cnn(C3CCNCC3)c2)cnc1N)c1c(Cl)ccc(F)c1Cl [Crizotinib] (partner 1 µM)
relative viability (HCC-15; first compound 0.08 µM): 0.781 | relative viability (HCC-15; first compound 0.253 µM): 0.659 | relative viability (HCC-15; first compound 0.8 µM): 0.799 | relative viability (HCC-15; first compound 2.53 µM): 0.803 | relative viability (HCC-366; first compound 0.08 µM): 0.654 | relative viability (HCC-366; first compound 0.253 µM): 0.408 | relative viability (HCC-366; first compound 0.8 µM): 0.534 | relative viability (HCC-366; first compound 2.53 µM): 0.422 | relative viability (NCI-H2126; first compound 0.08 µM): 0.996 | relative viability (NCI-H2126; first compound 0.253 µM): 1.02 | relative viability (NCI-H2126; first compound 0.8 µM): 0.968 | relative viability (NCI-H2126; first compound 2.53 µM): 1.01 | relative viability (A-427; first compound 0.08 µM): 0.911 | relative viability (A-427; first compound 0.253 µM): 0.972 | relative viability (A-427; first compound 0.8 µM): 0.882 | relative viability (A-427; first compound 2.53 µM): 0.826 | relative viability (NCI-H1734; first compound 0.08 µM): 0.65 | relative viability (NCI-H1734; first compound 0.253 µM): 0.636 | relative viability (NCI-H1734; first compound 0.8 µM): 0.647 | relative viability (NCI-H1734; first compound 2.53 µM): 0.631 | relative viability (NCI-H2023; first compound 0.08 µM): 0.775 | relative viability (NCI-H2023; first compound 0.253 µM): 0.696 | relative viability (NCI-H2023; first compound 0.8 µM): 0.664 | relative viability (NCI-H2023; first compound 2.53 µM): 0.688 | relative viability (NCI-H2009; first compound 0.08 µM): 1.09 | relative viability (NCI-H2009; first compound 0.253 µM): 0.958 | relative viability (NCI-H2009; first compound 0.8 µM): 1 | relative viability (NCI-H2009; first compound 2.53 µM): 0.892 | relative viability (NCI-H1650; first compound 0.08 µM): 0.92 | relative viability (NCI-H1650; first compound 0.253 µM): 0.909 | relative viability (NCI-H1650; first compound 0.8 µM): 1.07 | relative viability (NCI-H1650; first compound 2.53 µM): 0.844 | relative viability (SW 1573; first compound 0.08 µM): 0.932 | relative viability (SW 1573; first compound 0.253 µM): 0.879 | relative viability (SW 1573; first compound 0.8 µM): 0.785 | relative viability (SW 1573; first compound 2.53 µM): 0.772 | relative viability (LOU-NH91; first compound 0.08 µM): 0.74 | relative viability (LOU-NH91; first compound 0.253 µM): 0.724 | relative viability (LOU-NH91; first compound 0.8 µM): 0.749 | relative viability (LOU-NH91; first compound 2.53 µM): 0.782 | relative viability (NCI-H441; first compound 0.08 µM): 0.845 | relative viability (NCI-H441; first compound 0.253 µM): 0.528 | relative viability (NCI-H441; first compound 0.8 µM): 0.713 | relative viability (NCI-H441; first compound 2.53 µM): 0.791 | relative viability (HCC-44; first compound 0.08 µM): 0.781 | relative viability (HCC-44; first compound 0.253 µM): 0.886 | relative viability (HCC-44; first compound 0.8 µM): 0.774 | relative viability (HCC-44; first compound 2.53 µM): 0.767 | relative viability (NCI-H650; first compound 0.08 µM): 0.786 | relative viability (NCI-H650; first compound 0.253 µM): 0.676 | relative viability (NCI-H650; first compound 0.8 µM): 0.673 | relative viability (NCI-H650; first compound 2.53 µM): 0.611 | relative viability (RERF-LC-KJ; first compound 0.08 µM): 0.833 | relative viability (RERF-LC-KJ; first compound 0.253 µM): 0.712 | relative viability (RERF-LC-KJ; first compound 0.8 µM): 0.794 | relative viability (RERF-LC-KJ; first compound 2.53 µM): 0.846 | relative viability (NCI-H460; first compound 0.08 µM): 1.03 | relative viability (NCI-H460; first compound 0.253 µM): 0.857 | relative viability (NCI-H460; first compound 0.8 µM): 0.858 | relative viability (NCI-H460; first compound 2.53 µM): 0.776 | relative viability (HARA; first compound 0.08 µM): 1.02 | relative viability (HARA; first compound 0.253 µM): 0.956 | relative viability (HARA; first compound 0.8 µM): 1.06 | relative viability (HARA; first compound 2.53 µM): 1.12 | relative viability (ChaGo-K-1; first compound 0.08 µM): 1.17 | relative viability (ChaGo-K-1; first compound 0.253 µM): 0.999 | relative viability (ChaGo-K-1; first compound 0.8 µM): 1.06 | relative viability (ChaGo-K-1; first compound 2.53 µM): 0.989 | relative viability (HCC-78; first compound 0.08 µM): 0.349 | relative viability (HCC-78; first compound 0.253 µM): 0.336 | relative viability (HCC-78; first compound 0.8 µM): 0.297 | relative viability (HCC-78; first compound 2.53 µM): 0.362 | relative viability (COR-L23; first compound 0.08 µM): 0.619 | relative viability (COR-L23; first compound 0.253 µM): 0.605 | relative viability (COR-L23; first compound 0.8 µM): 0.833 | relative viability (COR-L23; first compound 2.53 µM): 0.722 | relative viability (LCLC-97TM1; first compound 0.08 µM): 0.338 | relative viability (LCLC-97TM1; first compound 0.253 µM): 0.401 | relative viability (LCLC-97TM1; first compound 0.8 µM): 0.362 | relative viability (LCLC-97TM1; first compound 2.53 µM): 0.349 | relative viability (LCLC-103H; first compound 0.08 µM): 1.04 | relative viability (LCLC-103H; first compound 0.253 µM): 1.12 | relative viability (LCLC-103H; first compound 0.8 µM): 0.984 | relative viability (LCLC-103H; first compound 2.53 µM): 0.954 | relative viability (NCI-H1993; first compound 0.08 µM): 0.804 | relative viability (NCI-H1993; first compound 0.253 µM): 0.861 | relative viability (NCI-H1993; first compound 0.8 µM): 0.884 | relative viability (NCI-H1993; first compound 2.53 µM): 0.954 | relative viability (201T; first compound 0.08 µM): 1.07 | relative viability (201T; first compound 0.253 µM): 0.982 | relative viability (201T; first compound 0.8 µM): 1.02 | relative viability (201T; first compound 2.53 µM): 0.998
